Assay results: patent US6107316A, “Method for treating protozoal infections” (priority 1998, dated 2000)
Values after ≈ are worked out from the molar mass of the structure shown. Where two headings read alike, the source gives them in different places.

Assays:
[1] = test system: Entamoeba histolytica; experiment: in vitro growth inhibitory activity against E. histolytica; assay type: cell-based
From the text: 35, pp. 2198-2202 (1991). Metronidazole was included as a standard in the test for comparative purposes.

[2] = test system: Leishmania major; experiment: in vitro growth inhibitory activity against L. major promastigotes; assay type: cell-based
From the text: 35, pp. 2198-2202 (1991).

[3] = test system: Giardia lamblia; experiment: in vitro growth inhibitory activity against Giardia lamblia; assay type: cell-based; settings: Giardia duodenalis; concentration required to inhibit growth by 50%
Procedure: 35, pp. 2198-2202 (1991). EC50 values for test compounds, expressed in parts per million (ppm), were calculated from dose response curves and are presented in Table 4. As used herein, the terminology "EC50" means the concentration of test compound required to inhibit growth by 50% are compared to a control lacking the test compound. Metronidazole was included as a standard in the tests for comparative purposes.

[4] = test system: Encephalitozoon (Septata) intestinalis; experiment: growth inhibitory activity against E. intestinalis grown on Vero cells (spore count); assay type: cell-based; settings: 336 h, 0.1 μg/ml, spore number after 2 weeks, read-out: Growth (% of control)
Procedure: Compounds 2, 10 and 15 were tested for i,7 vitro growth inhibitory activity against E. intestinalis, grown on African green monkey kidney cells (Vero cells). Vero cells were grown in 25-cm^2 culture flasks at 37° C. in a humidified 5% carbon dioxide incubator. Cultures were maintained in minimal essential medium (Gibco BRL, Gaithersburg, Md., U.S.A.), supplemented with L-glutamine, Earle's salts, 5% heat-inactivated foetal calf serum (Hyclone Labs, Inc., U.S.A.), fungizone (2 μg/ml, Gibco BRL) and gentamicin (50 μg/ml, Gibco BRL). E. intestinalis spores were collected from the supernatant of an infected Vero cell culture and were used to infect normal cells to produce a fresh spore preparation for growth inhibition tests.
Growth inhibition tests were performed in 24-well culture plates. One ml of Vero cells (5×10^4 cells per ml) was placed in each well and the cells incubated for 12-15 hours at 37° C. The supernatant medium was then removed and replaced with 1 ml of medium containing 1.5-2.0×10^4 E. intestinalis spores per ml along with 1 μl of test compound dissolved in dimethylsulfoxide (DMSO) or DMSO alone for the control treatments without test compound. The plates were incubated at 37° C. and the medium was changed every 72 h along with fresh test compound in DMSO or DMSO alone (controls). After 2 weeks the supernatant was transferred from each well to a microcentiifuge tube, then concentrated by centrifugation with resuspension of the resulting E. intestinalis spore pellet in 300-500 μl fresh medium. The spore number in each sample was then determined by counting in a hemocytometer. The results in Table 11 show the effects of the test compounds on the number of spores and are expressed as a percentage of the spore number in the control treatment without test compound.

[5] = test system: Tetrahymena pyriformis; experiment: in vitro growth inhibitory activity against the ciliate Tetrahymena pyriformis; assay type: cell-based, Tetrahymena pyriformis (ATCC strain 30005); settings: read-out: EC50 Tetrahymena pyriformis
Procedure: Compounds were evaluated for in vitro growth inhibitory activity against the ciliate Tetrahymena pyriformis, which was used as an indicator organism for the Apicomplexia since by several criteria the ciliates and Apicomplexa are closely related (Edlind T. D. et al., Mol. Phylogenet. Evol. vol. 5, pp. 359-367, 1996). T. pyriformis (ATCC strain 30005) was grown in 1 ml ATCC medium 357 at 25° C. in 4 ml polyallomer culture tubes without shaking. Compounds were dissolved in dimethylsufoxide (DMSO) and added to the cultures (containing 3,000 cells/ml) such that the final DMSO concentration was 0.1-0.3%. […] Parasitol. vol. 84, pp. 355-370, 1996) and Cryptosporidium parvum (Arrowood et al., FEMS Microbial. Lett., vol. 136, pp. 245-249, 1996) were tested for comparison.

[6] = test system: Toxoplasma gondii; settings: Stokkermans et al., 1996; cited from earlier work
[7] = test system: Cryptosporidium parvum; settings: Arrowood et al., 1996; cited from earlier work

## CCC(C)(NC(=O)c1cc(Cl)cc(C=NOC)c1)C(=O)CCl (stereo not shown) [Compound 2]
[1]
  EC50: 12 µg/mL (≈ 34.8 µM)
[2]
  EC50: 0.03 µg/mL (≈ 0.0869 µM)
[3]
  EC50: 0.03 µg/mL (≈ 0.0869 µM)
[4]
  activity at 0.1 µg/mL: 29%
[5]; 24 hours, 25° C.
  EC50: < 0.01 µg/mL

## CCC(C)(NC(=O)c1cc(C)cc(Br)c1)C(=O)CCl (stereo not shown) [Compound 3]
[1]
  EC50: 16 µg/mL (≈ 46.2 µM)
[2]
  EC50: 0.2 µg/mL (≈ 0.577 µM)
[3]
  EC50: 0.06 µg/mL (≈ 0.173 µM)
[5]; 24 hours, 25° C.
  EC50: < 0.01 µg/mL

## CCC(C)(NC(=O)c1cncc(Br)c1)C(=O)CCl (stereo not shown) [Compound 15]
[1]
  EC50: 20 µg/mL (≈ 59.9 µM)
[2]
  EC50: 0.7 µg/mL (≈ 2.1 µM)
[3]
  EC50: 0.2 µg/mL (≈ 0.599 µM)
[4]
  activity at 0.1 µg/mL: 13%
[5]; 24 hours, 25° C.
  EC50: < 0.01 µg/mL

## Cc1ncc([N+](=O)[O-])n1CCO [Metronidazole, reference compound]
[1]
  EC50: 0.5 µg/mL (≈ 2.92 µM)
[3]
  EC50: 0.7 µg/mL (≈ 4.09 µM)

## CCC(CC)Nc1c([N+](=O)[O-])cc(C)c(C)c1[N+](=O)[O-] [pendimethalin]
[6]
  in vitro activity against Toxoplasma gondii: have in vitro activity
[7]
  in vitro activity against Cryptosporidium parvum: have in vitro activity
[5]; 24 h
  EC50: 2 µg/mL (≈ 7.11 µM)

## CCCN(CCC)c1c([N+](=O)[O-])cc(C(F)(F)F)cc1[N+](=O)[O-] [trifluralin]
[6]
  in vitro activity against Toxoplasma gondii: have in vitro activity
[7]
  in vitro activity against Cryptosporidium parvum: have in vitro activity
[5]; 24 hours, 25° C.
  EC50: > 6 µg/mL
